Assays:
Type in all cases: in vivo
[1] = system: ovariectomized ddY female mouse (OVX mouse); experiment: Fat accumulation in liver and fat cell size in abdominal adipose tissue (H & E staining) in climacteric mouse model; details: 10 mg/kg/day oral, 12 weeks; for fat accumulation in the liver: H & E staining (FIG. 10a); for increase in fat cell size in the abdominal adipose tissue: H & E staining (FIG. 10b)
Experimental: (§1) A 10-week-old ovariectomized ddY female mouse (OVX mouse) was used as a climacteric animal model to evaluate the in vivo efficacy of Loganin (ovariectomy after 8 weeks and 2 weeks of additional feeding for recovering conditions). Sham mouse group cut the abdomen open without ovariectomy (normal control group) was used as control group, and OVX mouse group in which physiological saline alone was administered to ovariectomized mice (negative control group) and SrCl2 mouse group in which a single compound, strontium chloride (SrCl2), was orally injected at a dose of 10 mg/kg/day (comparison group of […] compound administration) were used. 10-week-old Sham-operated and ovariectomized ddY female mice were purchased from Central Laboratory Animals Co. and transferred to a clean animal breeding area after a 1-week purifying period in the quarantine room of Experimental Animal Center in Ajou University. The weight of each mouse was measured and group separation was performed so that there was no statistically significant weight difference between the experimental groups. For the experiment, a test solution of Loganin was prepared as an aqueous solution and in order to bring in the laboratory animal center, a sterilization operation was carried out by irradiating with a gamma ray by a radiation irradiation professional company, Soyagreentec Co., Ltd. In the test group, Loganin was orally injected at a dose of 10 mg/kg/day for 12 weeks and blood estrogen level, estrogen receptor alpha expression level in uterus tissue, uterine size, body weight, and fat cell size of liver and abdominal adipose tissue were measured and analyzed.
In general, when estrogen is reduced in female climacterium, new estrogen is produced from adipocytes to offset the estrogen deficiency. In this process, more fat cells are produced and can cause abdominal obesity. In other words, fat accumulation in the liver and fat cell size increase in abdominal adipose tissue are caused by the increase of insulin and leptin, which are hormone proteins related to lipid metabolism. Liver and abdominal adipose tissues of mice were extirpated and H & E stained after 12 weeks of administration of Loganin to female climacteric mouse model.

[2] = system: ovariectomized ddY female mouse (OVX mouse); experiment: Body weight and blood insulin and leptin (ELISA) in climacteric mouse model; details: 10 mg/kg/day oral, 12 weeks; for increase in insulin in the blood / increase in leptin in the blood: ELISA; for increase in insulin in the blood: vs. OVX negative control (FIG. 9b); for increase in leptin in the blood: vs. OVX negative control (FIG. 9c); for weight gain (body weight): vs. OVX negative control (FIG. 9a)
Experimental: as §1
An ordinary female climacteric symptom results in weight gain due to estrogen decrease. The changes in body weight of mice and the presence of insulin and leptin, the metabolic hormone proteins, were measured by ELISA after 12 weeks of administration of Loganin to female climacteric mouse model.

[3] = system: ovariectomized ddY female mouse (OVX mouse); experiment: Uterine contraction and degeneration (shape, size, thickness, weight) in climacteric mouse model; details: 10 mg/kg/day oral, 12 weeks; for outward shape and size of the uterus: vs. OVX negative control (FIG. 8a); for thickness of the H & E-stained uterine section: vs. OVX negative control (FIG. 8b); for weight of the uterus: vs. OVX negative control (FIG. 8c)
Experimental: as §1
An ordinary female climacteric symptom results in uterine contraction and degeneration due to estrogen decrease. The shape, size, thickness and weight of the uterus were observed after 12 weeks of administration of Loganin to female climacteric mouse model followed by extirpating uterus. When compared to normal Sham mouse without ovariectomy, the uterus was small (FIG. 8a), the thickness of the section was thin (FIG. 8b) and the uterine weight was light (FIG. 8c) in ovariectomized OVX mouse.

estrogen receptor alpha = experiment: Estrogen receptor alpha mRNA and protein expression in uterus of climacteric mouse model; details: OVX mouse, 10 mg/kg/day oral, 12 weeks; for decrease of the estrogen receptor alpha protein in uterus section: immunohistochemistry, vs. OVX negative control (FIG. 7b); for decrease of mRNA expression of the estrogen receptor alpha in uterus: vs. OVX negative control (FIG. 7a)
Experimental: as §1
An ordinary female climacteric symptom results in a remarkable reduction in estrogen receptors in uterine tissue cells due to estrogen decrease. The estrogen receptor is activated by estradiol (17β-estradiol, E2) and has two classes of estrogen receptor alpha and estrogen receptor beta. In the uterus, the estrogen receptor alpha plays a more important role than the estrogen receptor beta, and during climacterium, a marked reduction in the estrogen receptor alpha causes contraction and degeneration of the uterus. The mRNA expression level of the estrogen receptor alpha gene and the estrogen receptor alpha protein expression level by immunohistochemistry of section of the uterus were analyzed after 12 weeks of administration of Loganin to climacteric mouse model followed by extirpating uterus.

[4] = system: ovariectomized ddY female mouse (OVX mouse); experiment: Blood estradiol, progesterone and cortisol by ELISA in female climacteric (OVX) mouse model; details: 10 mg/kg/day oral, 12 weeks; for decrease level of estradiol (17β-estradiol, E2) in the blood: vs. OVX negative control (FIG. 6a); for decrease level of progesterone in the blood: vs. OVX negative control (FIG. 6b)
Experimental: as §1
An ordinary female climacteric symptom results in a significant reduction in female hormones, i.e. estrogen and progesterone. The amount of estradiol (17β-estradiol, E2) and progesterone which are estrogen in the blood was measured by ELISA after 12 weeks of administration of Loganin to female climacteric mouse model.

SMILES	fat accumulation in the liver [1]	increase in fat cell size in the abdominal adipose tissue [1]	increase in insulin in the blood [2]	increase in leptin in the blood [2]	weight gain (body weight) [2]	outward shape and size of the uterus [3]	thickness of the H & E-stained uterine section [3]	weight of the uterus [3]	decrease of the estrogen receptor alpha protein in uterus section (estrogen receptor alpha)	decrease of mRNA expression of the estrogen receptor alpha in uterus (estrogen receptor alpha)	decrease level of estradiol (17β-estradiol, E2) in the blood [4]	decrease level of progesterone in the blood [4]
COC(=O)C1=CO[C@@H](O[C@@H]2O[C@H](CO)[C@@H](O)[C@H](O)[C@H]2O)[C@@H]2[C@@H](C)[C@@H](O)C[C@H]12 [Loganin]	remarkably inhibited	remarkably inhibited	significantly inhibited	significantly inhibited	significantly inhibited	significantly inhibited	significantly inhibited	significantly inhibited	significantly inhibited	significantly inhibited	significantly inhibited	significantly inhibited
[Cl-].[Cl-].[Sr+2] [SrCl2, strontium chloride]	no difference with OVX mouse	no difference with OVX mouse	no difference with OVX mouse	no difference with OVX mouse	no difference with OVX mouse	no difference with OVX mouse	no difference with OVX mouse	no difference with OVX mouse	no difference with OVX mouse	no difference with OVX mouse	no difference with OVX mouse	no difference with OVX mouse
